Laboratory results: patent US8614218B2, “Fused bicyclic pyrimidines” (Bayer Intellectual Property GmbH, priority 2007, dated 2013)
pIC50: −log10 of the molar value.

Tests used:
Type in all cases: cell-based
phospho-GSK3 (Ser9) = assay: Cellular pGSK3 assay (phospho-GSK3 ELISA); settings: Homo sapiens, MCF7 cells, 48 h incubation, read-out: Cellular pGSK3 pathway assay
Description: In order to study the cellular activity of the compounds according to the present invention, an ELISA-based assay has been established for the phosphorylated protein glycogen synthetase kinase 3 (GSK3). The assay is based on a solid phase sandwich ELISA that detects endogenous levels of phosphorylated GSK3 using a phospho-GSK3 (Ser9) specific antibody (BioSource International, Inc.; Catalog #KHO0461). After incubation with cell lysates, the coated antibody captures the phosphorylated GSK3 protein. Following extensive washing, GSK3 polyclonal antibody is added to detect the captured phospho-GSK3 protein. Secondary antibody (anti-rabbit IgG-HRP) is then used to recognize the bound detection antibody. After the second incubation and washing to remove all the excess anti-rabbit IgG-HRP, a substrate solution is added, which is acted upon by the bound enzyme to produce color. The intensity of this colored product is directly proportional to the concentration of GSK-3β [pS9] present in the original specimen. MCF7 cells (ATCC HTB-22) were seeded into 96 well fate bottom plates at a density of 10000 cells/well. After 24 h 1 μl each of the compound dilutions (test compounds were dissolved as 10 mM solutions in dimethylsulfoxide (DMSO) and subsequently diluted) were added into each well of the 96 well plates and incubated for 48 h at 37° C. in a humidified atmosphere containing 5% CO2. Cells were harvested and lysed in cell extraction buffer (10 mM Tris, pH 7.4, 100 mM NaCl, 1 mM EDTA, 1 mM EGTA, 1 mM NaF, 20 mM Na4P2O7, 2 mM Na3VO4, 1% Triton X-100, 10 vol % glycerol, 0.1 vol % SDS, 0.5 vol % deoxycholate, 1 mM phenylmethylsulfonylfluoride (PMSF)). The lysate were centrifuged for 10 min. at 4° C. and the supernatant were transferred to a new tube. 50 μl of sample diluent (standard diluent buffer, Biosource) were added and 100 μl of cell lysate transferred into the tube and vortexed. 100 μl of each diluted cell lysate were added to the appropriate ELISA well plate and incubated for 3 h at room temperature. The plates were washed 4 times with 1× wash buffer (Biosource). 50 μl of detection antibody (GSK3 (Ser9) detection antibody; BioSource) were added to each well and incubated for 30 min. at room temperature. The washing procedure was repeated between each step. 100 μl of HRP-linked secondary antibody (anti-mouse IgG HRP-linked antibody) were added to each well and incubated for 30 min. at room temperature. 100 μl of TMB substrate (0.05 vol % 3,3′,5,5′ tetramethylbenzidine, 0.1 vol % hydrogen peroxide, complex polypeptides in a buffered solution; Biosource) were added to each well and incubated for 30 min. at room temperature. Finally 100 μl of Stop solution (0.05 vol % α and β unsaturated carbonyl compound) were added to each well and the plate were shaked gently for a few seconds. The absorbance was measured at λ=450 nm (Wallac Victor2; Perkin Elmer, USA) within 30 min. after adding the stop solution.
The analysis of the data was performed using a statistical program (Excel; Microsoft, USA) and the IC50 of pGSK3 inhibition was determined.

phospho-Akt (Ser473) = assay: Cellular PI3K/Akt pathway assay (phospho-Akt ELISA); settings: Homo sapiens, MCF7 cells, β-Heregulin stimulated, 48 h incubation
Description: Cellular PI3K/Akt Pathway Assay
In order to study the cellular activity of the compounds according to the present invention, an Enzyme Linked Immunosorbent Assay (ELISA)-based assay has been used specific phospho-AKT. The assay is based on a Sandwich ELISA kit (PathScan™ Phospho-Akt1 (Ser473); Cell Signaling, USA; #7160). The ELISA Kit detects endogenous levels of phosphorylated Akt protein. A phospho-Akt (Ser473) antibody (Cell Signaling, USA; #9271) has been coated onto the microwells. After incubation with cell lysates, the coated antibody captures the phosphorylated Akt protein. Following extensive washing, Akt1 monoclonal antibody (Cell Signaling, USA; #2967) is added to detect the captured phospho-Akt1 protein. HRP-linked anti-mouse antibody (HRP: horseradish peroxidase; Cell Signaling, USA; #7076) is then used to recognize the bound detection antibody. HRP substrate (=3,3′,5,5′-tetramethylbenzidine (TMB); Cell Signaling, USA; #7160) is added to develop colour. The magnitude of optical density for this developed color is proportional to the quantity of phosphorylated Akt protein.
MCF7 cells (ATCC HTB-22) are seeded into 96 well fate bottom plates at a density of 10000 cells/well. 24 hours after seeding, the cells are serum starved using low-serum medium (IMEM media including 0.1% charcoal treated FCS (FCS: fetal calf serum)). After 24 hours 1 μl each of the compound dilutions (test compounds were dissolved as 10 mM solutions in dimethylsulfoxide (DMSO) and subsequently diluted) are added into each well of the 96 well plates and incubated for 48 h at 37° C. in a humidified atmosphere containing 5% CO2. To stimulate Akt phosphorylation, β-Heregulin (20 ng/ml β-HRG) is added in parallel to the compounds. Wells containing unstimulated control cells (no β-Heregulin stimulation) are incubated with or without the diluted compound. Wells containing untreated control cells (no compound) are filled with medium containing 0.5% v:v DMSO and are or are not stimulated with β-Heregulin.
Cells are harvested and lysed with brief sonification in 1× cell lysis buffer (20 mM Tris (pH7.5), 150 mM NaCl, 1 mM ethylene diaminetetraacetate (EDTA), 1 mM ethylene glycolbis(2-aminoethyl)-N,N,N′,N′-tetraacetic acid (EGTA), 1 vol % Triton X-100, 2.5 mM sodium pyrophosphate, 1 mM β-glycerolphosphate, 1 mM Na3VO4, 1 μg/ml leupeptin). The lysate is centrifuged for 10 min. at 4° C. and the supernatant is transferred to a new tube. 100 μl of sample diluent (0.1 vol % Tween-20, 0.1 vol % sodium azide in phosphate buffered saline (PBS)) are added to a microcentrifuge tube and 100 μl of cell lysate are transferred into the tube and vortexed. 100 μl of each diluted cell lysate are added to the appropriate ELISA well, and incubated overnight at 4° C. The plates are washed 4 times with 1× wash buffer (1 vol % tween-20, 0.33 vol % thymol, in PBS). Next 100 μl of detection antibody (Akt1 (2H10) monoclonal detection antibody; Cell Signaling, USA; #2967) are added to each well and incubation continued for 1 h at 37° C. The washing procedure is repeated between each step. 100 μl of secondary antibody (anti-mouse IgG HRP-linked antibody; Cell Signaling, USA; #7076) are added to each well and incubated for 30 min. at 37° C. Than, 100 μl of TMB substrate (0.05% 3,3′,5,5′ tetramethylbenzidine, 0.1% hydrogen peroxide, complex polypeptides in a buffered solution; Cell Signaling, USA; #7160) are added to each well and incubated for 30 min. at 25° C. Finally 100 μl of STOP solution (0.05 vol % α and β unsaturated carbonyl compound) are added to each well and the plate are shaked gently. The absorbance is measured at λ=450 nm (Wallac Victor2; Perkin Elmer, USA) within 30 min. after adding the STOP solution. The analysis of the data is performed using a statistical program (Excel; Microsoft, USA). Preferred compounds show an inhibitory activity towards Akt phosphorylation below 10 μM.

A549 cells = assay: Cellular proliferation/cytotoxicity assay (Alamar Blue), A549; settings: Homo sapiens, 72 h, Alamar Blue (Resazurin), read-out: Anti-proliterative/Cytotoxic activity (A549 cells)
Method in brief: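 OvCAR3 (10000 cells/well) or A549 (2000 cells/well) were dosed 24 h after seeding and exposed for 72 h at 37 °C, 5% CO2, in duplicate or more. Resazurin was added for 4 h and fluorescence read at 544/590 nm. Viability is relative to untreated 0.5% DMSO controls, with IC50 by non-linear regression.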

SMILES	pIC50 (phospho-GSK3 (Ser9))	pIC50 (phospho-Akt (Ser473))	pIC50 (A549 cells)
Cc1c(-c2ccccc2)c(-c2ccc(CN3CCC(c4n[nH]c(-c5ccccn5)n4)CC3)cc2)nc2nccn12 [Example 27, 5-methyl-6-phenyl-7-(4-{[4-(5-pyridin-2-yl-1H-1,2,4-triazol-3-yl)piperidin-1-yl]methyl}phenyl)imidazo[1,2-a]pyrimidine]	5.00 to 6.00	< 5.00	–
COc1c(-c2ccccc2)c(-c2ccc(CN3CCC(c4n[nH]c(-c5ccccn5)n4)CC3)cc2)nc2ccnn12 [Example 29, 7-Methoxy-6-phenyl-5-(4-{[4-(5-pyridin-2-yl-1H-1,2,4-triazol-3-yl)piperidin-1-yl]methyl}phenyl)pyrazolo[1,5-a]pyrimidine]	5.00 to 6.00	–	< 5.00
